Experimental findings from ChEMBL document CHEMBL1151998, “Combretatroponeshybrids of combretastatin and colchicine. Synthesis and biochemical evaluation” (Bioorg Med Chem Lett, 1993) are described below.

In the assay the target is Tubulin beta chain (Bos taurus, UniProt Q6B856). The assay can be described thus: Compound was evaluated for in vitro inhibitory activity against polymerization of tubulin into microtubules isolated from bovine brain at 1 mg/mL tubulin concentration. The assay is classed as tissue-based.
Chain of Tubulin beta chain (Q6B856 whole entry): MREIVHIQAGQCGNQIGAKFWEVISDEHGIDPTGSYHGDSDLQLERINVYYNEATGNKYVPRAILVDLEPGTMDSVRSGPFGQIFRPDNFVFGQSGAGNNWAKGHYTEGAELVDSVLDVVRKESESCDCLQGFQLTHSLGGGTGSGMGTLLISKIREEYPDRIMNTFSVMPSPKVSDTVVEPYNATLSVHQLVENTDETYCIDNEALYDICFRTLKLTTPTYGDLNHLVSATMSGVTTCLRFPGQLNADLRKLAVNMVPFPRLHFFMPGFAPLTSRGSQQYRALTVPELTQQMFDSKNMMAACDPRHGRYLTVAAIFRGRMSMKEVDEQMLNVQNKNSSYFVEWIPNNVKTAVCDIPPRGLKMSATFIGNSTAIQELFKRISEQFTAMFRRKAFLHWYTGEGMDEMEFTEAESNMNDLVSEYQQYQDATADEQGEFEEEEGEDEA

By IC50 is commonly meant the concentration at which inhibition is half-maximal.

For `COc1cc(CCc2cccc(SC)c(=O)c2)cc(OC)c1OC`, the IC50 came out at 12 µM.

With `COc1cc(CCc2cccc(OC)c(=O)c2)cc(OC)c1OC`, the IC50 came to 8.6 µM.

As to `COc1ccc(-c2ccc(OC)c(=O)cc2)c(OC)c1OC`, the IC50 was 2.5 µM.
